Molecular target: T1, human recombinant 5-HT2C receptor (Homo sapiens, UniProt P28335)
T1 construct: expressed in transfected cells
T1 sequence (P28335 33-458): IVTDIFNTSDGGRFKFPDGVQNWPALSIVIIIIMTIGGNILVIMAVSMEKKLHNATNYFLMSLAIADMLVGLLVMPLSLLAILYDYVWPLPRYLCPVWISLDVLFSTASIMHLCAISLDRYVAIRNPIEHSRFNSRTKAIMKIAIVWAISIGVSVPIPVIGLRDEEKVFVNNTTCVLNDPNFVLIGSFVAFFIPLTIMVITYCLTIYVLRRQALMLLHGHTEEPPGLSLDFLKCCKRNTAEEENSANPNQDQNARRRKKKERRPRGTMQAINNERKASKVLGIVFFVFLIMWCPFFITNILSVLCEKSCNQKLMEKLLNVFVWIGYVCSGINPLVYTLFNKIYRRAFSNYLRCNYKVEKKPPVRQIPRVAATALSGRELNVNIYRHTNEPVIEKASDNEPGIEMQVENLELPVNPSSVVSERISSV
Experiment: [3H]Mesulergine binding to serotonin 5-HT2C receptor
Conditions: [3H]Mesulergine (1 nM); membranes from CHO-K1 cell line expressing human recombinant 5-HT2C receptor; 30 min at 37° C.; read-out: Affinity for 5-HT2C receptor (IC50)
Protocol: [^3H]Mesulergine Binding to Serotonin 5-HT2C Receptor
Frozen membranes from stable CHO—K1 cell line expressing the human recombinant 5-HT2C receptor were used. For the binding assay, [^3H]Mesulergine (1 nM), receptor membrane (4 ug/well) and test compounds were added into 50 mM Tris-HCl (pH 7.7) buffer containing 0.1% ascorbic acid and 10 uM pargyline. Nonspecific binding was determined using 0.5 uM mianserin. The incubations were performed for 30 min at 37° C., and these were terminated by rapid filtration through Whatman GF/C glass fiber filters presoaked in 1% BSA. Then, the resultant was washed with cold 50 mM Tris-HCl buffer. The filter was covered with MeltiLex, sealed in a sample bag followed by drying in the microwave oven, and counted by MicroBeta Plus (Wallac, Finland). Nonspecific binding was determined in the presence of mianserin (0.5 uM). Competition binding studies were carried out with 7-8 varied concentrations of the test compounds run in duplicate tubes, and isotherms from three assays were calculated by computerized nonlinear regression analysis (GraphPad Prism Program, San Diego, USA) to yield IC50 values (Table 1).

Row | IC50 | SMILES
1 | 86.9 nM | CN1CCN(c2nc(Nc3ccccc3)c3cnn(C)c3n2)CC1 [Comp. 3, 1-methyl-6-(4-methylpiperazine-1-yl)-N-phenyl-1H-pyrazolo[3,4-d]pyrimidine-4-amine]
2 | 8490 nM | CCN(CC)c1nc(Nc2ccc(C)c(C)c2)c2cnn(C)c2n1 [Comp. 4, N^4-(3,4-dimethylphenyl)-N^6,N^6-diethyl-1-methyl-1H-pyrazolo[3,4-d]pyrimidine-4,6-diamine]
3 | 991 nM | CCN(CC)c1nc(Nc2ccc(Cl)cc2)c2cnn(C)c2n1 [Comp. 5, N^4-(4-chlorophenyl)-N^6,N^6-diethyl-1-methyl-1H-pyrazolo[3,4-d]pyrimidine-4,6-diamine]
4 | 29.4 nM | CN1CCN(c2nc(Nc3ccc(Cl)cc3)c3cnn(C)c3n2)CC1 [Comp. 6, N^6-(4-chlorophenyl)-1-methyl-6-(4-methylpiperazine-1-yl)-1H-pyrazolo[3,4-d]pyrimidine-4-amine]
5 | 242 nM | CCN(CC)c1nc(Nc2ccccc2C)c2cnn(C)c2n1 [Comp. 7, N^6,N^6-diethyl-1-methyl-N^4-o-tolyl-1H-pyrazolo[3,4-d]pyrimidine-4,6-diamine]
6 | 7790 nM | CNc1nc(Nc2ccc(F)cc2)c2cnn(C)c2n1 [Comp. 8, N^4-(4-fluorophenyl)-N^6,1-dimethyl-1H-pyrazolo[3,4-d]pyrimidine-4,6-diamine]
7 | > 1000 nM | CCNc1nc(Nc2ccc(F)cc2)c2cnn(C)c2n1 [Comp. 9, N^6-ethyl-N^4-(4-fluorophenyl)-1-methyl-1H-pyrazolo[3,4-d]pyrimidine-4,6-diamine]
8 | 5710 nM | Cn1ncc2c(Nc3ccc(F)cc3)nc(NC3CCCCC3)nc21 [Comp. 14, N^6-cyclohexyl-N^4-(4-fluorophenyl)-1-methyl-1H-pyrazolo[3,4-d]pyrimidine-4,6-diamine]
9 | 2590 nM | Cn1ncc2c(Nc3ccc(F)cc3)nc(NCc3ccccc3)nc21 [Comp. 16, N^6-benzyl-N4-(4-fluorophenyl)-1-methyl-1H-pyrazolo[3,4-d]pyrimidine-4,6-diamine]
10 | 5830 nM | Cc1ccc(CNc2nc(Nc3ccc(F)cc3)c3cnn(C)c3n2)cc1 [Comp. 17, N^4-(4-fluorophenyl)-1-methyl-N^6-(4-methylbenzyl)-1H-pyrazolo[3,4-d]pyrimidine-4,6-diamine]
11 | 4030 nM | CN(C)c1nc(Nc2ccc(F)cc2)c2cnn(C)c2n1 [Comp. 19, N^4-(4-fluorophenyl)-N^6,N^6,1-trimethyl-1H-pyrazolo[3,4-d]pyrimidine-4,6-diamine]
12 | 3310 nM | CCN(CC)c1nc(Nc2ccc(F)cc2)c2cnn(C)c2n1 [Comp. 20, N^6,N^6-diethyl-N^4-(4-fluorophenyl)-1-methyl-1H-pyrazolo[3,4-d]pyrimidine-4,6-diamine]
13 | 2070 nM | Cn1ncc2c(Nc3ccc(F)cc3)nc(N3CCOCC3)nc21 [Comp. 21, N-(4-fluorophenyl)-1-methyl-6-morpholino-1H-pyrazolo[3,4-d]pyrimidine-4-amine]
14 | 1300 nM | Cn1ncc2c(Nc3ccc(F)cc3)nc(N3CCCCC3)nc21 [Comp. 22, N-(4-fluorophenyl)-1-methyl-6-(piperidine-1-yl)-1H-pyrazolo[3,4-d]pyrimidine-4-amine]
15 | 3820 nM | CC1CC(C)CN(c2nc(Nc3ccc(F)cc3)c3cnn(C)c3n2)C1 (stereo not drawn) [Comp. 23, 6-(3,5-dimethylpiperidine-1-yl)-N-(4-fluorophenyl)-1-methyl-1H-pyrazolo[3,4-d]pyrimidine-4-amine]
16 | 1500 nM | CC1CCN(c2nc(Nc3ccc(F)cc3)c3cnn(C)c3n2)CC1 [Comp. 24, N-(4-fluorophenyl)-1-methyl-6-(4-methylpiperidine-1-yl)-1H-pyrazolo[3,4-d]pyrimidine-4-amine]
17 | 494 nM | Cn1ncc2c(Nc3ccc(F)cc3)nc(N3CCN(CCO)CC3)nc21 [Comp. 26, 2-(4-(4-(4-fluorophenylamino)-1-methyl-1H-pyrazolo[3,4-d]pyrimidine-6-yl)piperazine-1-yl)ethanol]
18 | 836 nM | Cn1ncc2c(Nc3ccc(F)cc3)nc(N3CCN(Cc4ccccc4)CC3)nc21 [Comp. 27, 6-(4-benzylpiperazine-1-yl)-N-(4-fluorophenyl)-1-methyl-1H-pyrazolo[3,4-d]pyrimidine-4-amine]
19 | 416 nM | Cn1ncc2c(Nc3ccc(F)cc3)nc(N3CCN(c4ccccc4)CC3)nc21 [Comp. 28, N-(4-fluorophenyl)-1-methyl-6-(4-phenylpiperazine-1-yl)-1H-pyrazolo[3,4-d]pyrimidine-4-amine]
20 | 148 nM | Cn1ncc2c(Nc3ccc(F)cc3)nc(N3CCN(c4ccc(F)cc4)CC3)nc21 [Comp. 29, N-(4-fluorophenyl)-6-(4-(4-fluorophenyl)piperazine-1-yl)-1-methyl-1H-pyrazolo[3,4-d]pyrimidine-4-amine]
21 | 1720 nM | COc1ccccc1N1CCN(c2nc(Nc3ccc(F)cc3)c3cnn(C)c3n2)CC1 [Comp. 30, N-(4-fluorophenyl)-6-(4-(2-methoxyphenyl)piperazine-1-yl)-1-methyl-1H-pyrazolo[3,4-d]pyrimidine-4-amine]
22 | 5420 nM | CCN(CC)c1nc(Nc2cccc(OC)c2)c2cnn(C)c2n1 [Comp. 31, N^6,N^6-diethyl-N^4-(3-methoxyphenyl)-1-methyl-1H-pyrazolo[3,4-d]pyrimidine-4,6-diamine]
23 | 7.8 nM | COc1cccc(Nc2nc(N3CCN(C)CC3)nc3c2cnn3C)c1 [Comp. 32, N-(3-methoxyphenyl)-1-methyl-6-(4-methylpiperazine-1-yl)-1H-pyrazolo[3,4-d]pyrimidine-4-amine]
24 | 1080 nM | COc1cccc(Nc2nc(N3CCN(c4ccc(F)cc4)CC3)nc3c2cnn3C)c1 [Comp. 33, 6-(4-(4-fluorophenyl)piperazine-1-yl)-N-(3-methoxyphenyl)-1-methyl-1H-pyrazolo[3,4-d]pyrimidine-4-amine]

Row | SMILES | IC50
25 | Cn1ncc2c(Nc3ccc(F)cc3)nc(NCCCO)nc21 [Comp. 10, 3-(4-(4-fluorophenylamino)-1-methyl-1H-pyrazolo[3,4-d]pyrimidine-6-ylamino)propane-1-ol] | > 1000 nM
26 | COCCNc1nc(Nc2ccc(F)cc2)c2cnn(C)c2n1 [Comp. 11, N^4-(4-fluorophenyl)-N^6-(2-methoxyethyl)-1-methyl-1H-pyrazolo[3,4-d]pyrimidine-4,6-diamine] | > 1000 nM
27 | COCCCNc1nc(Nc2ccc(F)cc2)c2cnn(C)c2n1 [Comp. 12, N^4-(4-fluorophenyl)-N^6-(3-methoxypropyl)-1-methyl-1H-pyrazolo[3,4-d]pyrimidine-4,6-diamine] | > 1000 nM
28 | C=CCNc1nc(Nc2ccc(F)cc2)c2cnn(C)c2n1 [Comp. 13, N^6-allyl-N^4-(4-fluorophenyl)-1-methyl-1H-pyrazolo[3,4-d]pyrimidine-4,6-diamine] | > 1000 nM
29 | Cn1ncc2c(Nc3ccc(F)cc3)nc(NC3CCCC3)nc21 [Comp. 15, N^6-cyclopentyl-N^4-(4-fluorophenyl)-1-methyl-1H-pyrazolo[3,4-d]pyrimidine-4,6-diamine] | > 1000 nM
30 | Cn1ncc2c(Nc3ccc(F)cc3)nc(NCCN3CCOCC3)nc21 [Comp. 18, N^4-(4-fluorophenyl)-1-methyl-N^6-(2-morpholinoethyl)-1H-pyrazolo[3,4-d]pyrimidine-4,6-diamine] | > 1000 nM
31 | CN1CCN(c2nc(Nc3ccc(F)cc3)c3cnn(C)c3n2)CC1 [Comp. 25, N-(4-fluorophenyl)-1-methyl-6-(4-methylpiperazine-1-yl)-1H-pyrazolo[3,4-d]pyrimidine-4-amine] | 85.8 nM
32 | CN1CCN(c2nc(Nc3ccc(F)cc3)c3cnn(C)c3n2)CC1 [Comp. 35, N-(4-fluorophenyl)-1-methyl-6-(4-methylpiperazine-1-yl)-1H-pyrazolo[3,4-d]pyrimidine-4-amine] | 20.1 nM

Same assay, conditions: read-out: Affinity for 5-HT2C receptor (IC50)

Row | SMILES | IC50
33 | COc1ccc(Nc2nc(N3CCN(c4ccc(F)cc4)CC3)nc3c2cnn3C)cc1 [Comp. 34, 6-(4-(4-fluorophenyl)piperazine-1-yl)-N-(4-methoxyphenyl)-1-methyl-1H-pyrazolo[3,4-d]pyrimidine-4-amine] | 1180 nM

— patent US8232279B2, “Pyrazolopyrimidine derivatives having biological activity on serotonin receptor 5-HT2c” (Korea Institute of Science and Technology, priority 2009, dated 2012)
